Results on 4 compounds are retold here after PubChem BioAssay AID652216 (The Scripps Research Institute Molecular Screening Center, 2013).

Broadly, the pIC50 is the IC50 on a negative log10 scale, so that one unit is a factor of ten.

pIC50: −log10 of the molar value. Activity calls are given as the source filed them.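 Rule for the calls: active = IC50 below 10 µM against protein phosphatase 1 in the dose response test; inactive = IC50 of 10 µM or more.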

The target in the experiment is Serine/threonine-protein phosphatase PP1-alpha catalytic subunit (Homo sapiens) (UniProt P62136). Description: dose-dependent PP1alpha phosphatase inhibition – biochemical, fluorescence, OMFP substrate, set 4, dose response (AID 652216). Particulars: purified PP1alpha, OMFP dephosphorylation fluorescence.
Sequence of Serine/threonine-protein phosphatase PP1-alpha catalytic subunit (Homo sapiens) (P62136 whole entry, looked up): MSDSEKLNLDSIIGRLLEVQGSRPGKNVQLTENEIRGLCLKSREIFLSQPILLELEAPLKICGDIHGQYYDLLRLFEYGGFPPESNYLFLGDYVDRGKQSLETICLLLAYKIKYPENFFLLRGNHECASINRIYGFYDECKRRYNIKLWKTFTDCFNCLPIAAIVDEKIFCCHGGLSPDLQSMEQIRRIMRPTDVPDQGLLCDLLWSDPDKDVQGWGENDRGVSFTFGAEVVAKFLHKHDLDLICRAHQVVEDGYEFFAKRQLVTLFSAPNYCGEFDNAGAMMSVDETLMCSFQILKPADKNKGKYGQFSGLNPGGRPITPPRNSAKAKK
For `CN1CCN([C@H](c2ccc(C(F)(F)F)cn2)c2ccc3cccnc3c2O)CC1`, the pIC50 was 5.05.

`CN1CCN(C(c2cccc(F)n2)c2ccc3cccnc3c2O)CC1` (centres undefined): the IC50 result is “inactive”.

Take `CN1CCN([C@@H](c2ccc(C(F)(F)F)cn2)c2ccc3cccnc3c2O)CC1`: the pIC50 was 5.08.

For the compound `CN1CCN(C(c2ccc(C(F)(F)F)cn2)c2ccc3cccnc3c2O)CC1` (centres undefined), the pIC50 is 5.35.
